Consider nine compounds from ChEMBL document CHEMBL5038672, “Conversion of a PROTAC Mutant Huntingtin Degrader into Small-Molecule Hydrophobic Tags Focusing on Drug-like Properties” (ACS Med Chem Lett, 2022).

Calls of active or inactive are those of the source. No cut-off for these calls is given here.

Usually efflux ratio stands for the permeability from basolateral to apical divided by that in the opposite direction, in the common usage. By Papp A→B is commonly meant the apparent permeability from the apical to the basolateral side of a cell layer. Usually Papp B→A stands for the apparent permeability from the basolateral to the apical side of a cell layer. One may read the Kp as the ratio of the level in a tissue or fluid to that in plasma or blood.

Data set [1] concerns HeLa. As to the kind of experiment: Induction of EGFP fused Htt Q145 mutant exon 1 (unknown origin) degradation expressed in human HeLa cells assessed as HSP70/CHIP recruitment based proteosome mediated mHtt exon 1-Q145 degradation at higher concentration measured after 24 hrs by Western blot analysis. Format: cell-based.
Data set [2] has as its system HeLa. As to the kind of experiment: Induction of EGFP fused Htt Q145 mutant exon 1 (unknown origin) degradation expressed in human HeLa cells assessed as HSP70/CHIP recruitment based proteosome mediated mHtt exon 1-Q145 degradation at 10 uM preincubated with geldanamycin for 6 hrs and measured after 24 hrs by Western blot analysis. Format: cell-based. On the technique in general: A western blot detects proteins with antibodies after separation by electrophoresis.

For data set [3], the system named is HeLa. As to the kind of experiment: Induction of EGFP fused Htt Q145 mutant exon 1 (unknown origin) degradation expressed in human HeLa cells assessed as HSP70/CHIP recruitment based proteosome mediated mHtt exon 1-Q145 degradation at 10 uM measured after 24 to 48 hrs by Western blot analysis. Format: cell-based. The settings on record: time 24-48 hrs.
Data set [4] has as its system HeLa. As to the kind of experiment: Induction of EGFP fused Htt Q145 mutant exon 1 (unknown origin) degradation expressed in human HeLa cells assessed as HSP70/CHIP recruitment based proteosome mediated mHtt exon 1-Q145 degradation at 10 uM measured after 24 hrs by Western blot analysis in the presence of bortezomib. Format: cell-based.
Data set [5] is described as follows: Efflux ratio of apparent permeability across basolateral to apical side over apical to basolateral side in human Caco-2 cells at 10 uM. Format: ADME, cell-based. Particulars: for efflux ratio at 10 µM: Caco-2.
A short description of data set [6]: Apparent permeability across apical to basolateral side in human Caco-2 cells at 10 uM. Particulars: for Papp A→B at 10 µM: Caco-2. The format is ADME, cell-based. On the technique in general: Caco-2 cells form a polarised layer with tight junctions and transporters.
Data set [7] relates to HeLa. As to the kind of experiment: Induction of EGFP fused Htt Q145 mutant exon 1 (unknown origin) degradation expressed in human HeLa cells assessed as HSP70/CHIP recruitment based proteosome mediated decrease in aggregate foci at 10 uM incubated for 24 hrs by Hoechst33342 staining based fluorescence microscopic analysis. Format: cell-based. Set-up: scale not given: the % may be the effect or the level left.

Data set [8] deals with Huntingtin (Homo sapiens), P42858 [UNDEFINED MUTATION]. As to the kind of experiment: Induction of mutant Htt (unknown origin) degradation expressed in human fibroblasts cells assessed as HSP70/CHIP recruitment based proteosome mediated mHtt degradation by western blot analysis. The format is cell-based. Particulars: Fibroblast.
Chain of Huntingtin (Homo sapiens), P42858 [UNDEFINED MUTATION] (P42858 whole entry, looked up, change not shown, the tested form may be a part): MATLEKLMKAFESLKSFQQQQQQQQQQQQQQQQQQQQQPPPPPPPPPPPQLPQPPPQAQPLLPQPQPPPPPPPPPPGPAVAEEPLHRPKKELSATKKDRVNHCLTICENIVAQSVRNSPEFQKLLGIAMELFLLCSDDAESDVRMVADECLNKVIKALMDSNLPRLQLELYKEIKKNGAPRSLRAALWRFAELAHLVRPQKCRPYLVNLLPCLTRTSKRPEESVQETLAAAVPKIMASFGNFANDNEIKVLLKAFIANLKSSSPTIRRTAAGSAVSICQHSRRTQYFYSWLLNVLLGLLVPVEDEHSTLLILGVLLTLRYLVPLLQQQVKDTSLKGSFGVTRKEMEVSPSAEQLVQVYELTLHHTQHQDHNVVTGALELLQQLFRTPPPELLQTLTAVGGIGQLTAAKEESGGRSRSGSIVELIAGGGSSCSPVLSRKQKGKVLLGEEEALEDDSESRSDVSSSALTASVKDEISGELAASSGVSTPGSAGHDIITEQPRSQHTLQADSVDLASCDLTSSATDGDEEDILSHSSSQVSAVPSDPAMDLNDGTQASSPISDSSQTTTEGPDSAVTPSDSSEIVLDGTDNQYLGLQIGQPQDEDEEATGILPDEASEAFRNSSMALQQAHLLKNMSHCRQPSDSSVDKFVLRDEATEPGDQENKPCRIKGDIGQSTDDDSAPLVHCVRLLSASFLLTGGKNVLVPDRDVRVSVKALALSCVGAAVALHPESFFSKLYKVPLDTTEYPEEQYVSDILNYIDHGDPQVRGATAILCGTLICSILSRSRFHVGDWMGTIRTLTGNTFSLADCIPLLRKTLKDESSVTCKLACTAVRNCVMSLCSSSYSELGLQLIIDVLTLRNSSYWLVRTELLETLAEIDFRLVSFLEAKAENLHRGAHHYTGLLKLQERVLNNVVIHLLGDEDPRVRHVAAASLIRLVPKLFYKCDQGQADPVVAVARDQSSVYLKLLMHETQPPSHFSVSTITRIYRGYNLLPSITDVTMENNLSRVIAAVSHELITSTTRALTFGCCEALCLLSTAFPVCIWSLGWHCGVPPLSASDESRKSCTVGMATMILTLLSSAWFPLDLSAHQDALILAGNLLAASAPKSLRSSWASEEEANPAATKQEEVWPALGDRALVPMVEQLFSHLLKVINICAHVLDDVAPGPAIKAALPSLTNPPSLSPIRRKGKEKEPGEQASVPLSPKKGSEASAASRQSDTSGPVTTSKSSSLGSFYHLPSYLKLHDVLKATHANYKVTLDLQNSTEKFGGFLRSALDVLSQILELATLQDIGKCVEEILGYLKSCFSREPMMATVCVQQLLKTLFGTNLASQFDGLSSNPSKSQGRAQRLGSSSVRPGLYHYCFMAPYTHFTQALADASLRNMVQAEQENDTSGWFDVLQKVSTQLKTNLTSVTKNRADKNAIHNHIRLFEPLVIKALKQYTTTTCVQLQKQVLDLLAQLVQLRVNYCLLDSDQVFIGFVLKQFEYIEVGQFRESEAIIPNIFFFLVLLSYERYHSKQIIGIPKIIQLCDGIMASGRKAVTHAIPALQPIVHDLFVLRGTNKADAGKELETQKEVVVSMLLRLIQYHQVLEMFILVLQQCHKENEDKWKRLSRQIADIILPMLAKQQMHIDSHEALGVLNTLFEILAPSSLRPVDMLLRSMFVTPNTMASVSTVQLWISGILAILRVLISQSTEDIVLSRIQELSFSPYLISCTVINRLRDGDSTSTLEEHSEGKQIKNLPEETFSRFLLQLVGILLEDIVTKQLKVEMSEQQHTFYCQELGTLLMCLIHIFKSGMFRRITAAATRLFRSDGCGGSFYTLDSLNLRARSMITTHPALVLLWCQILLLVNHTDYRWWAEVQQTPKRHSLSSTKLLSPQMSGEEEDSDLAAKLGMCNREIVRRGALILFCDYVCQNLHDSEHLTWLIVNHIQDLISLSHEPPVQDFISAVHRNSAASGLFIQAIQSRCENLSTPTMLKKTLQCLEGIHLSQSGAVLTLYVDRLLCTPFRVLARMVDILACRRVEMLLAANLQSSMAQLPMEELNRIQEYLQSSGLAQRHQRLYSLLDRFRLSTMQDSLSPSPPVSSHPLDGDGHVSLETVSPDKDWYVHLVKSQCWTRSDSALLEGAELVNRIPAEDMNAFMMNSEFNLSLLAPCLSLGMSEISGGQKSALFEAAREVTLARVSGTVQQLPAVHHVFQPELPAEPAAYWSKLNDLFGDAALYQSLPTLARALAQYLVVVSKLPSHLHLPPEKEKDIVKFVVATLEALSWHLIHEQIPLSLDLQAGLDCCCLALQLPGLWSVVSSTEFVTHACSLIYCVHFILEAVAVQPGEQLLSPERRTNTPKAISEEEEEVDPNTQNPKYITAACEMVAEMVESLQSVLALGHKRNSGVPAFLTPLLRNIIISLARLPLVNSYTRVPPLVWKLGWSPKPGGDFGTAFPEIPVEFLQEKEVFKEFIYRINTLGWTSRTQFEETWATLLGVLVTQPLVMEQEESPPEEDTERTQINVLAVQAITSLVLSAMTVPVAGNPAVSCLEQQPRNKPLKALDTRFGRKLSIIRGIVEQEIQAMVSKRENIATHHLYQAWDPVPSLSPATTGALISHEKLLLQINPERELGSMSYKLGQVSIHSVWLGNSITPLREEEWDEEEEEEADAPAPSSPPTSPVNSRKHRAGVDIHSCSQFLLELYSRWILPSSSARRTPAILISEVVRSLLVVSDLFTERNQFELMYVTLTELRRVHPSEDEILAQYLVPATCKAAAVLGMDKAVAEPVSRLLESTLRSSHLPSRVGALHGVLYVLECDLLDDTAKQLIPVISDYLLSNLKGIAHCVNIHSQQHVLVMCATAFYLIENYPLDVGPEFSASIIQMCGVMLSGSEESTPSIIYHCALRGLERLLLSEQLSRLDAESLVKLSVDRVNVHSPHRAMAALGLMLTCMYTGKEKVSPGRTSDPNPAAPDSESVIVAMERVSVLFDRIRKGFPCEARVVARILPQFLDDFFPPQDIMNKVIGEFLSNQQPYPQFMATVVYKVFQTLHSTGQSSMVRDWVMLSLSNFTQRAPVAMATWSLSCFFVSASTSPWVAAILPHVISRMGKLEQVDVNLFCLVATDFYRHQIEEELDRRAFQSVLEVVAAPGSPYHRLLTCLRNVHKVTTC
The test system of data set [9] is HeLa. As to the kind of experiment: Induction of EGFP fused Htt Q145 mutant exon 1 (unknown origin) degradation expressed in human HeLa cells assessed as HSP70/CHIP recruitment based proteosome mediated mHtt exon 1-Q145 degradation at 5 uM measured after 24 hrs by Western blot analysis. Format: cell-based.
The nature of data set [10]: Apparent permeability across basolateral to apical side in human Caco-2 cells at 10 uM. Format: ADME, cell-based. The settings on record: for Papp B→A at 10 µM: Caco-2.
The subject of data set [11] is HeLa. As to the kind of experiment: Induction of EGFP fused Htt Q23 mutant exon 1 (unknown origin) degradation expressed in human HeLa cells assessed as HSP70/CHIP recruitment based proteosome mediated mHtt exon 1-Q23 degradation at 1 to 10 uM measured after 48 hrs by Western blot analysis. Format: cell-based. The settings on record: dose 1-10 µM.
Data set [12] relates to HeLa. As to the kind of experiment: Induction of EGFP fused Htt Q145 mutant exon 1 (unknown origin) degradation expressed in human HeLa cells assessed as HSP70/CHIP recruitment based proteosome mediated mHtt exon 1-Q145 degradation at 10 uM measured after 24 hrs by Western blot analysis. The format is cell-based.
A short description of data set [13]: Ratio of drug concentration in brain to plasma in C57BL/6J mouse at 0.1 to 0.7 mg/kg, iv measured after 4 hrs. Format: ADME, organism-based. Particulars: brain and plasma, dose 0.1-0.7 mg/kg.

For `CN(C)c1ccc(/N=N/c2nc3ccc(OCCOCCOCCOCCOc4cccc5ccccc45)cc3s2)cc1`, the outcome in the data set with HeLa [1] was Active.
With `CN(C)c1ccc(/N=N/c2nc3ccc(OCCOCCOCCOCCOC45CC6CC(CC(C6)C4)C5)cc3s2)cc1`, the outcome in the data set with HeLa [2] and in the data set with HeLa [3] was Active. Besides, the outcome in the data set with HeLa [4], in the data set on HeLa [9] and with HeLa [11] was inactive. The efflux ratio at 10 µM in data set [5] stood at 1.2. Besides, the Papp A→B at 10 µM in data set [6] is 0.098 ×10⁻⁶ cm/s. In addition, the results for the Activity (in the data set on HeLa [7]; in data set [8]) were 60% and “Dose-Dependent Effect”, respectively. For the same compound, the Papp B→A at 10 µM in data set [10] was 0.118 ×10⁻⁶ cm/s.
Take `CN(C)c1ccc(/N=N/c2nc3ccc(O)cc3s2)cc1`: the result with HeLa [12] was inactive.
As to `CCCCCC(CCCCC)OCCOCCOCCOCCOc1ccc2nc(/N=N/c3ccc(N(C)C)cc3)sc2c1`, in data set [5] (caco-2, 10 µM), the Ratio was found to be 0.241. Further, the Papp in data set [6] (caco-2, 10 µM) is reported as 2.46 10^-6 cm/s; in data set [10] (caco-2, 10 µM), 0.241 10^-6 cm/s. Besides, the outcome in the data set with HeLa [1] was Active.
`CN(C)c1ccc(/N=N/c2nc3ccc(OCCOCCOC45CC6CC(CC(C6)C4)C5)cc3s2)cc1`: in data set [13], the Kp at 4 h was found to be 4.89. Besides, in data set [10], the Papp B→A at 10 µM was 4.71 ×10⁻⁶ cm/s.
`OCCOCCOCCOCCOC12CC3CC(CC(C3)C1)C2`: the outcome in the data set on HeLa [12] was inactive.
`CN(C)c1ccc(/N=N/c2nc3ccc(OCCOCCOCCOCCOC45CC6CC7C8CC(CC74)CC5C8C6)cc3s2)cc1`: the efflux ratio at 10 µM in [5] was 0.235. Further, the Kp at 4 h in data set [13] was found to be 0.13. In data set [6], the apical-to-basolateral permeability (Papp A→B) at 10 µM was found to be 5.32 ×10⁻⁶ cm/s. Besides, in the data set on HeLa [9], the Activity is 60%. In [10], the Papp B→A at 10 µM was determined as 1.25 ×10⁻⁶ cm/s.
Consider `CC(C)C[C@H](NC(=O)[C@@H](O)[C@H](N)Cc1ccccc1)C(=O)NCCOCCOCCOc1ccc2nc(/N=N/c3ccc(N(C)C)cc3)sc2c1`, for which the efflux ratio at 10 µM in data set [5] was 0.19. The Papp A→B at 10 µM in data set [6] is 1.03 ×10⁻⁶ cm/s. In addition, the Papp B→A at 10 µM in [10] was determined as 0.196 ×10⁻⁶ cm/s.
For `CN(C)c1ccc(/N=N/c2nc3ccc(OCCOCCOCCOCCOC(c4ccccc4)c4ccccc4)cc3s2)cc1`, in the data set with HeLa [1], the outcome was Active.
